Test results published in patent publication US4684620A, “Cyclic polypeptides having mu-receptor specificity” (Gibson-Stephens Neuropharmaceuticals, Inc., priority 1984, dated 1987).
Residues, ends and D or L forms follow the SMILES beside them.

Test system: mu-type opiate receptors
Assay: Guinea pig ileum (GPI) test, electrically stimulated contractions, antagonism of morphiceptin
Conditions: morphiceptin alone
Procedure: The compounds of the present invention were tested for their ability to inhibit electrically stimulated muscle contractions in the guinea pig ileum (GPI) assay and in the mouse vas deferens (MVD) assay.
The tests in the guinea pig ileum were conducted as follows: strips of longitudinal muscle with adhering myenteric plexus were prepared from nonterminal ilea of guinea pigs and attached to a force transducer in a 60 ml isolated organ bath. Contractions were elicited by electrical stimulation with a Grass S44D stimulator.

With `NC(=O)[C@@H]1CCCN1C(=O)[C@H](Cc1ccccc1)NC(=O)[C@@H]1CCCN1C(=O)[C@@H](N)Cc1ccc(O)cc1` [Morphiceptin] (H-YPFP-NH2) the “Percent inhibition of contractions” value (300 nM) was 28 ± 3%, the “Percent inhibition of contractions” value (1000 nM) was 58 ± 3% and the “Percent inhibition of contractions” value (3000 nM) was 73 ± 4%. The “Percent inhibition of contractions” value (10000 nM) was 73 ± 3%.
